Test results as given in patent US20260227411A1, “CONJUGATED METABOLITES FOR CANCER DETECTION AND TREATMENT” (VANDERBILT UNIVERSITY, priority 2023, published 2026).

Key:
dysplastic cells = experiment: Subcellular localization of NBD-EA in 2-dimensional monolayer culture; format: cell-based, mouse
Procedure: Mouse gastric organoids were dissociated into single cells and dissociated cells (5,000 cells/well) were seeded on the collagen-coated 8-well chamber slide (ibidi) in Mouse IntestiCult medium (06005, StemCell Technology) for two days until the cells reach at 50% confluency. The cells were incubated with NBD (Compound A) or NBD-conjugated Eicosenoic acid over time and then stained with 100 nM MitoTracker™ Red CMXRos (M7512, Thermo Fisher Scientific) for 20 min at 37° C. The cells were washed with pre-warmed 1×PBS three times and counterstained with Hoechst for 5 min at RT. Confocal imaging was performed on a Zeiss LSM 880 using 63× magnification.

dysplastic organoids [1] = experiment: Metabolite rescue of A939572-treated dysplastic organoids; format: cell-based, mouse
Procedure: For metabolic enzyme inhibitor treatment, the media was switched to metabolic enzyme inhibitor containing media at one day after splitting the mouse gastric organoids and cultured for 3 days. For metabolite treatment, mouse gastric organoids were treated 100 nM A939572 with metabolites (cis-11-eicosenoic acid or cis-7,10,13,16-docosatetraenoic acid) at one day after splitting the mouse gastric organoids and cultured for 3 days. The EVOS M7000 inverted microscope (Thermo Fisher Scientific) or JuLI™ stage, a Real-Time Cell History Recorder (NanoEntek) were used to capture phase contrast images of the organoids or monitor the growth and morphological changes of the organoids in real-time. Quantitative data analyses were performed using at least 3 wells of images at 4× magnification. For measurement of organoid growth, phase contrast images of organoids were captured over time and measured at the widest diameters using the ZEN 3.3 blue edition (Zeiss) measuring tool. For Calcein AM/Ethidium-1(EthD-1) staining, mouse gastric organoids were cultured for 1 day after splitting and transferred to microfluidic-based flowchips (Protein Fluidics) that can enable 3D cell-based assay. The media containing 100 nM A939572 with metabolites (cis-11-eicosenoic acid or cis-7,10,13,16-docosatetraenoic acid) was added to the top of the organoids and cultured for 3 days. Then, the organoids were stained with […] (L3224, Thermo Fisher Scientific) for 30 min at 37° C. Confocal imaging was performed on a Zeiss LSM 880 using a 20× magnification. To prepare Formalin-Fixed, Paraffin-Embedded (FFPE) organoid sections, whole mouse or human gastric organoids in Matrigel™ were fixed in 4% PFA for 30 min at RT and washed with 1×PBS twice. The organoids were embedded in Epredia™ HistoGel™ (HG-4000-012, Thermo Fisher Scientific) and processed according to a standard histological protocol for paraffin embedding.
To address how and why dysplastic cells utilize the SCD-dependent FA desaturation, experiments examined the functions of two different unsaturated long-chain FAs, MUFA (FFA 20:1) and PUFA (FFA 22:4), which were abundant in dysplasia. Two metabolites, Eicosenoic acid (EA; 20:1n9, MUFA) and Docosatetraenoic acid (DA; 22:4n6, PUFA) (FIG. 7A) were selected based on the enhanced fragment ions detected from imaging mass spectrometry (FIG. 3E). Dysplastic organoids were co-treated with A939572, in combination with either EA or DA for 3 days. […] To determine the subcellular localization of EA in dysplastic cells, EA was conjugated with NBD, a green-fluorescent compound (NBD-EA) (FIG. 7B and FIG. 8A-B). […] Since the EA is imported into mitochondria, experiments further examined whether the EA undergoes FA oxidation which occurs in the mitochondrial aerobic metabolism and produces energy substrate for the TCA cycle.

[2] = system: Gif-rtTA; TetO-Cre; Kras^G12D (GCK) mice; experiment: In vivo A939572 treatment of GCK mice; conditions: 20 mg/kg intraperitoneal daily for 2 weeks
Procedure: All experiments involving mice used in this study followed protocols approved by the Institutional Animal Care and Use Committees of Vanderbilt University Medical Center. Littermates or age-matched mice were randomly allocated to experimental or control groups. Animal weights were recorded at initiation of experiment and at the time of euthanasia. To generate the Gif-rtTA; TetO-Cre; Kras^G12D (GCK) mice, the Gif-rtTA mice were crossed with TetO-Cre mice and Lox-Stop-Lox (LSL)-Kras^G12D mice (no. 006224 and 008179, Jackson Laboratories). For the induction of Cre-mediated recombination, 6-week-old mice were administered with doxycycline water at a concentration of 1 mg/mL for 2 weeks. Mice were sacrificed at 2 to 14 weeks after doxycycline treatment for histological examination. For in vivo A939572 treatment, A939572 (HY-50709; MedChemExpress) was dissolved in dimethyl sulfoxide (DMSO) as a 100 mg/mL stock and stored at −80° C. in aliquots. The A939572 was administered daily for two weeks by intraperitoneal injection (20 mg/kg diluted in corn oil) to mice at 6 weeks after doxycycline treatment. Mice were sacrificed within a day after the last A939572 treatment.
Mouse tissues were isolated and fixed overnight in 4% paraformaldehyde, embedded in paraffin. Paraffin-embedded sections were sectioned at a thickness of five-micrometer and stained with hematoxylin and eosin (H&E). For immunostaining, unstained paraffin tissue sections were deparaffinized in HistoClear (HS-200, National Diagnostics) and rehydrated through a serial dilution of ethanol. Antigen retrieval was performed in target retrieval solution (S1699 or S2367, Agilent) using a pressure cooker for 15 minutes. Sections were rinsed in dH2O and incubated with Serum-free Protein Block Solution (X0909, Agilent) for 1.5 hours at room temperature (RT). Sections were additionally incubated with Mouse on Mouse Blocking Reagent (MKB-2213-1, Vector Laboratories) for 30 min at RT to block nonspecific staining with primary antibodies generated in mice on mouse tissues. Primary antibodies were diluted in Antibody Diluent (S3022, Agilent) and applied to sections overnight at 4° C.
For immunofluorescence, paraffin sections were washed with 1×PBS three times and incubated with Alexa-conjugated secondary antibodies (Life Technologies, 1:500) for 1 hour at RT. Sections were washed with 1×PBS three times and incubated with Hoechst 33342 (62249, Thermo Fisher Scientific, 1:5000) for 5 min at RT. The sections were then washed with 1×PBS three times and mounted with Prolong gold anti-fade reagent (P36934, Thermo Fisher Scientific). Images were captured on a Zeiss Axio Imager M2 microscope with Axiovision digital imaging system at 20× magnification. For immunohistochemistry, paraffin sections were washed with 1×PBS three times and incubated with HRP-conjugated secondary antibodies (MP-7402, Vector Laboratories) for 15 min at RT. Sections were washed with 1×PBS three times and incubated with Envision+ Detection System Peroxidase/DAB substrate (Dako). Sections were then washed with dH2O and counterstained Mayer's Hematoxylin (MHS32, Sigma-Aldrich). The sections were dehydrated and mounted with aqueous mounting medium. The sections were scanned on an SCN400 Slide Scanner (Leica Biosystems) at 20× magnification. TUNEL staining was performed using the Click-iT Plus TUNEL assay kit, according to the manufacturer's protocol (C10618, Life Technologies).
H&E-stained sections were scanned in SCN400 Slide Scanner and analyzed by Aperio ImageScope software (Leica Biosystems). Gland types were classified using the same diagnostic criteria used for human tissue sections. Briefly, the gland representing foveolar hyperplasia without goblet cells and mucous metaplasia at the base was diagnosed as a pyloric metaplastic gland, while intestinal metaplasia was determined by presence of basophilic mucin droplet-containing cells in the foveolar region.

normal gastric organoids = experiment: A939572 treatment of normal gastric organoids; format: cell-based, mouse; conditions: 100 nM A939572
Procedure: Mouse gastric organoids were established from corpus of untreated or Gif-rtTA; TetO-Cre; KrasG12D (GCK) mouse stomachs as described previously. The GCK mouse gastric organoids were cultured in ECM Gel (E1270, Sigma-Aldrich) or Cultrex® Reduced Growth Factor Basement Membrane Extract, Type R1 (3433-005-R1, R&D systems) with Mouse IntestiCult medium (06005, StemCell Technology) supplemented with 1% of penicillin/streptomycin (2441832, Gibco) in 48-well plates. The medium was replaced every 3 days and organoids were split every 3 to 5 days. Human gastric organoids were previously established from patients who underwent curative gastrectomy as described. […]
(§1) For metabolic enzyme inhibitor treatment, the media was switched to metabolic enzyme inhibitor containing media at one day after splitting the mouse gastric organoids and cultured for 3 days. […] Quantitative data analyses were performed using at least 3 wells of images at 4× magnification. For measurement of organoid growth, phase contrast images of organoids were captured over time and measured at the widest diameters using the ZEN 3.3 blue edition (Zeiss) measuring tool. […]

dysplastic organoids [3] = experiment: Metabolic enzyme inhibitor treatment of mouse dysplastic organoids; format: cell-based
Procedure: Mouse gastric organoids were established from corpus of untreated or Gif-rtTA; TetO-Cre; KrasG12D (GCK) mouse stomachs as described previously. The GCK mouse gastric organoids were cultured in ECM Gel (E1270, Sigma-Aldrich) or Cultrex® Reduced Growth Factor Basement Membrane Extract, Type R1 (3433-005-R1, R&D systems) with Mouse IntestiCult medium (06005, StemCell Technology) supplemented with 1% of penicillin/streptomycin (2441832, Gibco) in 48-well plates. The medium was replaced every 3 days and organoids were split every 3 to 5 days. Human gastric organoids were previously established from patients who underwent curative gastrectomy as described. The human gastric organoids were cultured in Corning™ Matrigel™ Membrane Matrix (356231, Thermo Fisher Scientific) with Human IntestiCult medium (06010, StemCell Technology) supplemented with 1% of penicillin/streptomycin, 0.2% of MycoZap (VZA-2031, Lonza) in a 48-well plate.
as §1, with “containing media at one day after splitting the mouse gastric organoids and cultured for 3 days. For metabolite treatment, mouse gastric organoids were treated 100 nM A939572 with metabolites (cis-11-eicosenoic acid or cis-7,10,13,16-docosatetraenoic acid) at one” for “containing media at one”
To determine the role of metabolic switch in dysplastic cells, expression levels of key metabolic enzymes, important for glycolysis or FA metabolism, were examined using gastric organoids established from each stage of GCK mice (FIG. 4A). […] The functional roles of metabolic pathways were assessed using key enzyme inhibitors in dysplastic organoids which highly expressed SCD1 (FIG. 4E). […]

[4] = system: human gastric organoid lines; experiment: A939572 treatment of human gastric organoid lines; format: cell-based; conditions: 1 μM for human
NIH-3T3 cells = experiment: EA-DM1 treatment of NIH-3T3 cells (negative control); format: cell-based, mouse; conditions: 5 nM, 2 days
Procedure: (§2) FIG. 9A-B show cells treated with EA-DM1 (cis-11-eicosenoic acid conjugated to mertansine (DM1)). […] DMSO was used as a vehicle control. […] The NIH-3T3 cell line was used as a negative control, and mouse normal cells and DMSO were used as a vehicle control.
(§3) To evaluate whether EA-DM1 (cis-11-eicosenoic acid conjugated to mertansine (DM1)) could be internalized and release free DM1 toxin into the cytosol, two different gastric cancer cell lines, AGS and NCI-N87, were treated with EA-DM1 for 2 days (FIG. 9A-B). Gastric cancer cells died within 2 days after the EA-DM1 treatment at 100 nM concentration (FIG. 9A).

NCI-N87 = experiment: EA-DM1 treatment of gastric cancer cell line NCI-N87; format: cell-based; conditions: 100 nM
Procedure: as §2, §3

AGS = experiment: EA-DM1 treatment of gastric cancer cell line AGS; format: cell-based
Procedure: as §2, §3

[5] = co-treated with 100 nM A939572 for 3 days

CCCCCCCC/C=C\CCCCCCCCCC(=O)Nc1ccc([N+](=O)[O-])c2nonc12 [NBD-EA, NBD-cis-11-Eicosenoic acid (C20:1, n-9)]
NBD fluorescent signal in dysplastic cells (dysplastic cells; 6 h after treatment): not detectable
NBD fluorescent signal in dysplastic cells (dysplastic cells; 24 h): strongly accumulated in mitochondria
NBD fluorescent signal in dysplastic cells (dysplastic cells; 48 h): weakly maintained

CCCCCCCC/C=C\CCCCCCCCCC(=O)O [EA, cis-11-eicosenoic acid]
organoid structure (dysplastic organoids [1]; [5]): not disrupted and showed clear central lumens
rescue of dysplastic organoids from SCD inhibition (organoid size) (dysplastic organoids [1]; [5]): recovered from SCD inhibition and displayed a significant increase in size

C1CCC(C(CC2CCCCN2)C2CCCCC2)CC1 (stereo not drawn) [perhexiline]
organoid growth after co-treatment (dysplastic organoids [1]; A939572, EA and perhexiline 10 μM, 3 days): did not display any significant increase in organoid growth
effect of FA oxidation inhibition on rescue by EA (dysplastic organoids [1]; perhexiline 10 μM with A939572 and EA, 3 days): abolished rescue effects of EA in dysplastic organoids

CNC(=O)c1cccc(NC(=O)N2CCC(Oc3ccccc3Cl)CC2)c1 [A939572, 4-(2-chlorophenoxy)-N-(3-(methylcarbamoyl)phenyl)piperidine-1-carboxamide]
F4/80+CD68+ macrophages [2]: slightly increased only at the base of glands
F4/80+CD68- macrophage infiltration [2]: significantly increased in the transitioning and surface areas
SPEM cells after treatment [2]: still present at the gland base and not co-positive for cleaved caspase-3 or TUNEL signal
dead cells within the transitioning cell zone (cleaved caspase-3, TUNEL) [2]: significant increase in dead cells
effects in other organs ([2]; at 6 weeks after doxycycline): without any effects in other organs
gastric mucosa histology (H&E) ([2]; at 6 weeks after doxycycline): flattened mucosa and loss of histological characteristics of dysplastic cells in the transitioning and surface areas of glands
response of normal gastric organoids (normal gastric organoids): did not show any significant changes
time within which dysplastic organoid growth and survival were impeded (dysplastic organoids [3]; 100 nM A939572): ≤ 1 days
cell proliferation (Ki-67) in dysplastic organoids (dysplastic organoids [3]; 100 nM A939572, IF staining): a decrease in cell proliferation
cleaved caspase-3 positive apoptotic cells in dysplastic organoids (dysplastic organoids [3]; 100 nM A939572, IF staining): accumulation of cleaved caspase-3 positive apoptotic cells in the central lumen of dysplastic organoids
time within which organoids died after treatment ([4]; organoid lines with dysplastic histology expressing both SCD and Trop2): ≤ 6 days
response to treatment ([4]; organoids with low level of SCD, Trop2 negative (metaplastic)): did not respond to the treatment

CCCCCCCC/C=C\CCCCCCCCCC(=O)N1CCN(C(=O)CSCCC(=O)N(C)[C@H](C)C(=O)O[C@@H]2CC(=O)N(C)c3cc(cc(OC)c3Cl)C/C(C)=C/C=C/[C@H](OC)[C@]3(O)C[C@@H](OC(=O)N3)[C@H](C)[C@H]3O[C@@]32C)CC1 [EA-DM1, (1^4S,1^6S,3^2S,3^3R,2R,4S,10E,12E,14R)-8^6-chloro-1^4-hydroxy-8^5,14-dimethoxy-3^3,2,7,10-tetramethyl-1^2,6-dioxo-7-aza-1(6,4)-oxazinana-3(2,3)-oxirana-8(1,3)-benzenacyclotetradecaphane-10,12-dien-4-yl N-(3-((2-(4-((Z)-icos-11-enoyl)piperazin-1-yl)-2-oxoethyl)thio)propanoyl)-N-methyl-L-alaninate]
changes in normal mouse fibroblast cells (NIH-3T3 cells): no noticeable changes
time within which gastric cancer cells died after treatment (NCI-N87): ≤ 2 days
targeting of gastric cancer cells (AGS; 5 nM, 2 days): effectively targeted gastric cancer cells
time within which gastric cancer cells died after treatment (AGS; 100 nM): ≤ 2 days

CCCCCC=CCC=CCC=CC/C=C\CCCCCC(=O)O [DA, cis-7,10,13,16-docosatetraenoic acid]
rescue of dysplastic organoids from SCD inhibition (organoid size) (dysplastic organoids [1]; [5]): did not show any differences compared to the organoids treated only with A939572
